Data from ChEMBL document CHEMBL1134162 (Bioorg Med Chem Lett, 2001).

Assays:
Mu-type opioid receptor [1] = target: T1, Mu-type opioid receptor (Cavia porcellus, UniProt P97266); assay: In vitro inhibitory activity was determined against Opioid receptor mu 1 in guinea pig ileum
[2] = target: T2, Delta-type opioid receptor (Mus musculus, UniProt P32300); assay: In vitro inhibitory activity was determined against Opioid receptor delta 1 in mouse vas deferens
Mu-type opioid receptor [3] = target: Mu-type opioid receptor (Rattus norvegicus, UniProt P33535); assay: Binding affinity was determined towards Opioid receptor mu 1 in rat brain synaptosomes using [3H]DAMGO as radioligand.
[4] = target: Mu-type opioid receptor (Rattus norvegicus) (UniProt P33535)
Description: Selectivity ratio was determined by taking the ratio of Opioid receptor mu 1 to that of Opioid receptor delta 1

Mu-type opioid receptor [5] = target: T1, Mu-type opioid receptor; assay: Inhibitory activity against Opioid receptor mu 1 of (endomorphin 2) in guinea pig ileum was determined
[6] = target: T2, Delta-type opioid receptor; assay: Inhibitory activity against Opioid receptor delta 1 of (endomorphin 2) in mouse vas deferens was determined
[7] = target: T2, Delta-type opioid receptor; assay: Inhibitory activity against delta receptor of (endomorphin 2) in mouse vas deferens was determined

T1 sequence (P97266 whole entry): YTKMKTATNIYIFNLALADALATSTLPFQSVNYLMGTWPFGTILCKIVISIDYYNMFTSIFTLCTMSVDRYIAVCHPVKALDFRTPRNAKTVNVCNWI
Sequence of Mu-type opioid receptor (Rattus norvegicus) (P33535 whole entry): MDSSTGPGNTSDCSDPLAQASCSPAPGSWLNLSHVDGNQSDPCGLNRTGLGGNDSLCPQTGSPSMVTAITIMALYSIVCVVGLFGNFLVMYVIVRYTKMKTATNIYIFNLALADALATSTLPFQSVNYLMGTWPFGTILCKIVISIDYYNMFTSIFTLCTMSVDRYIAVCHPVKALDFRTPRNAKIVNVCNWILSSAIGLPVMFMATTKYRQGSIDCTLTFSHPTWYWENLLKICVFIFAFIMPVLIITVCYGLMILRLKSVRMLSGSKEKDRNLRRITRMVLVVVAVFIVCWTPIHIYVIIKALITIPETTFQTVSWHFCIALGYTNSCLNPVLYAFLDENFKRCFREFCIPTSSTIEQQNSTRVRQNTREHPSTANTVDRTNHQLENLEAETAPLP
Sequence of Mu-type opioid receptor (Rattus norvegicus, UniProt P33535) (P33535 whole entry): as above
T2 sequence (P32300 whole entry): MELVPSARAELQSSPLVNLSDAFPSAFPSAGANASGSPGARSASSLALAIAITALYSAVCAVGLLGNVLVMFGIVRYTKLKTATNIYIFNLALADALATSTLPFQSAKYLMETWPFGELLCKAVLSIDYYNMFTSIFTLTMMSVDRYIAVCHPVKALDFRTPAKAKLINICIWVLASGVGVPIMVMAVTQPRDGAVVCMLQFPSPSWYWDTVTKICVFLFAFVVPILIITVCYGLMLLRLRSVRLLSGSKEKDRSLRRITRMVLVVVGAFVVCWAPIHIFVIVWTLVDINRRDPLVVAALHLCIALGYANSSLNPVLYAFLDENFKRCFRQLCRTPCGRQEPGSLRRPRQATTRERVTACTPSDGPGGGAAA

Question: Which IC50 (Mu-type opioid receptor [1]) does the source give for Cc1cccc(C)c1C[C@@H](NC(=O)CNC(=O)CNC(=O)[C@@H](N)Cc1ccc(O)cc1)C(=O)N[C@@H](CC(C)C)C(=O)O here?
Answer: 808 nM

Question: What about the IC50 [2] of the same compound?
Answer: 624 nM

Question: And the Ki (Mu-type opioid receptor [3])?
Answer: 1.25 nM

Question: And the SR [4]?
Answer: 0.07

Question: How did the IC50 (Mu-type opioid receptor [1]) turn out when Cc1cccc(C)c1C[C@H](NC(=O)CNC(=O)CNC(=O)[C@@H](N)Cc1ccc(O)cc1)C(=O)N[C@@H](CC(C)C)C(=O)O was run?
Answer: > 10 nM

Question: What about the IC50 [2] of the same compound?
Answer: > 10 nM

Question: And the SR [4]?
Answer: 0.28

Question: How did the Kb (Mu-type opioid receptor [5]) turn out when Cc1cccc(C)c1C[C@H](NC(=O)CNC(=O)CNC(=O)[C@@H](N)Cc1c(C)cc(O)cc1C)C(=O)N[C@@H](CC(C)C)C(=O)O was run?
Answer: 126 nM

Question: What about the IC50 (Mu-type opioid receptor [1]) of the same compound?
Answer: > 10 nM

Question: What about the IC50 [6] of the same compound?
Answer: > 10 nM

Question: And the Ki (Mu-type opioid receptor [3])?
Answer: 5.61 nM

Question: What about the Kb [7] of the same compound?
Answer: 2570 nM

Question: What about the SR [4] of the same compound?
Answer: 0.14

Question: With Cc1cc(O)cc(C)c1C[C@H](N)C(=O)NCC(=O)NCC(=O)N[C@@H](Cc1ccccc1)C(=O)N[C@@H](CC(C)C)C(=O)O as the compound, how does the IC50 (Mu-type opioid receptor [1]) read?
Answer: 0.55 nM

Question: And the IC50 [2]?
Answer: 0.17 nM

Question: And the Ki (Mu-type opioid receptor [3])?
Answer: 0.0068 nM

Question: And the SR [4]?
Answer: 0.22

Question: Which IC50 (Mu-type opioid receptor [1]) does the source give for Cc1cc(O)cc(C)c1C[C@H](N)C(=O)NCC(=O)NCC(=O)N[C@H](Cc1c(C)cccc1C)C(=O)N[C@@H](CC(C)C)C(=O)O here?
Answer: 2 nM

Question: And the IC50 [2]?
Answer: 1.45 nM

Question: What about the Ki (Mu-type opioid receptor [3]) of the same compound?
Answer: 0.03 nM

Question: What about the SR [4] of the same compound?
Answer: 0.19
